Data reported in patent US10456405B2, “Nitric oxide-releasing prodrug molecule of substituted quinazolines” (ZHEJIANG HUAHAI PHARMACEUTICAL CO., LTD, priority 2015, dated 2019).
Like-named read-outs stand apart in the source and are kept apart here.

Tests used:
[1] = Release of HNO (headspace gas chromatography of nitrous oxide); conditions: PBS pH 7.4, 37° C., argon, 90 min
Procedure: Experiment 2. Experimental study on the tested compounds for releasing HNO HNO rapidly dimerizes and dehydrates to produce nitrous oxide in aqueous solution. In the experiment of detecting HNO, gas chromatographic headspace analysis is generally used to determine the amount of the released nitrous oxide, thereby indirectly detect the level of releasing HNO of the compound.
Experimental procedure: Each of the tested compounds was prepared to 20 mg/mL of mother liquor with DMF. Prior to the start of the experiment, 50 μL of drug mother liquor was placed into a 20 mL headspace sample vial. The tested compound was diluted by adding 5 mL of PBS buffer with pH 7.4. The temperature of the resulting sample was kept at 37° C. under argon gas for 90 min. Then the top gas was extracted for gas chromatographic analysis of nitrous oxide by using Angeli's Salt as a positive compound in the experiment.

[2] = Plasma stability in vitro, mouse plasma; conditions: CD-1 mice plasma, 2 μM, 37° C., in % (unit assumed)
Procedure: (§1) Experimental method: The tested compounds (2 μM) were added into mouse or human plasma, and incubated at 37° C. Samples were taken at 0, 10, 30, 60 and 120 min respectively. The reaction was stopped by adding a stop agent. The mixture was sufficient shaken, and centrifuged at 4000 rpm for 10 min at 4° C. The supernatant was taken. The concentrations of the tested compounds and their metabolite (H130) in the supernatant were measured by LC-MS/MS.

ApoA-I mRNA = test: Regulation of ApoA-I mRNA in HepG2 cells (real-time PCR); type: cell-based; parameters: key: Active: When 100 μM of the tested compound allowed ApoA-I mRNA in HepG2 cells to increase more than 15%, then the test compound was known as an ApoA active compound; conditions: 100 μM, 48 h, relative to DMSO control
Procedure: Experiment 5. Regulation of the Tested Compounds on ApoA-I mRNA HepG2 cells were cultured for 24 h in a 24-well plate with 400 μl of MEM medium containing 0.5% (v/v) of fetal bovine serum. Then each of the tested compounds (100 μM) and the positive control RVX-208 (100 μM) were added. The cells were cultured for another 48 h. The medium was aspirated out. After washing with 200 μl of PBS, 85 μl of cell lysis solution was added into the cells in each well. The cells were incubated at room temperature for 5 to 10 min to be completely dissolved and detached. The mRNA was extracted from the cells with a kit. The extracted mRNA were used for a real-time fluorescence quantitative PCR detection with RNA Fluorescence (RiboGreen) Quantitation Assay Kit and ApoA-I mRNA Primer-Probe Mixture from the company of Applied Biosystems.
After obtaining the Ct values, the induction fold of each test compound relative to DMSO control was calculated. The induction fold was used to reflect the ability of regulating ApoA-I mRNA for the tested compounds. When 100 μM of the tested compound allowed ApoA-I mRNA in HepG2 cells to increase more than 15%, then the test compound was known as an ApoA active compound.

[3] = Plasma stability in vitro, human plasma; conditions: for Content of Tested Substance (n = 2): human plasma, 2 μM, 37° C., in % (unit assumed); for stability in human plasma: within 2 h
Procedure: as §1

[4] = Release of nitric oxide in vitro (Griess reagent, nitrite); conditions: 10^−4 mol/L tested substance, phosphate buffer pH 7.4, cysteine 5 mmol/L, 37° C., 1 h; as nitrite
Procedure: Experiment 1. Experimental Study on the Tested Compounds for Releasing Nitric Oxide in vitro
Experimental Procedure: • (1) Preparation of Griess Reagent: 4 g of aminobenzenesulfonamide, 0.2 g of N-naphthyl ethylene diamine hydrochloride, and 10 mL of 85% phosphoric acid solution were taken to form a solution, which is diluted to 100 mL with distilled water. • (2) Plotting of the standard curve: a serie of standard solution of 0.01, 0.03, 0.05, 0.07, 0.09, 0.2, 0.4 μg/mL of nitrite nitrogen was prepared, 10 mL of each was taken to sufficiently mix with 2.5 mL of Griess reagent, standing at room temperature for 10 min, and its absorbance value at the wavelength of 540 nm was measured. The standard curve was plotted based on the resulting data. • (3) Measuring the amount of the released NO of the tested drug: all of the tested substances were dissolved in dimethylsulfoxide (1 mL) firstly. Then phosphate buffer (pH 7.4) was slowly added dropwise, and shaken. The drug solution was diluted to 50 mL, allowing the buffer solution to contain excess cysteine (5 mmol/L), and the final concentration of the tested substances being 10^−4 mol/L; the solution was incubated at 37° C. 2 mL of the reaction solution was taken to mix with 500 μl of Griess reagent at 1 h respectively, standing at room temperature for 10 min. The absorbance value of the mixture at 540 nm was measured. Isosorbide mononitrate was used as a positive control, and H130 was used as a negative control. The amount of the released NO was represented by the amount of its oxidation product, nitrite (NO2^−).

[5] = rat, in vivo
Procedure: Experimental method: Intravenous injection solutions (the administration concentrations of the tested compounds were 1 mg/kg) and oral gastric perfusates (the administration concentrations of the test compounds were 5 mg/kg) of the test compounds were prepared, and intravenously and orally administered to three SD rats, respectively. The concentrations of the whole blood for H130 at 0.083 h, 0.25 h, 0.5 h, 1 h, 2 h, 4 h, 8 h, and 24 h after administration were determined by LC-MS/MS, respectively. The pharmacokinetic parameters were compared by a drug-time curve. Sample pretreatment: 150 μL of the whole blood to be tested was aspirated accurately. 600 μL of internal standard solution (diluted to 0.5 μg/mL with methanol) was added, sufficiently mixed by a vortex mixer, and centrifuged at 13000 r/min for 20 min at 4° C. 3 μL of the supernatant was taken into a sample vial.
Chromatographic conditions: C18 reversed-phase chromatographic column; gradient elution with mobile phase A: water/acetonitrile (v:v=95:5) with 0.025% of formic acid and 1 mM of ammonium acetate added thereto, and mobile phase B: acetonitrile/water (v:v=95:5) with 0.025% of formic acid and 1 mM of ammonium acetate added thereto.

C57BL/6 mice = test: Serum NO level in C57 mice after oral gavage; type: in vivo; conditions: oral gavage 150 mg/kg (positive drug 5 mg/kg), FIG. 1
From the text: Experimental method: 60 eight-week-old C57BL/6 mice (level: SPF; gender: male; source: Shanghai SLAC Laboratory Animal Co., Ltd.) were selected. […] were selected as the blank control. 12 mice were used as the positive drug control (isosorbide mononitrate). 12 mice were used as […] administration group. The other 32 mice were randomly divided into 4 groups, 8 mice per group, which are […] administration group, […] administration group, […] administration group, and […] administration group, respectively. The tested compounds of the positive drug control group and each administration group were dissolved in DMSO and then PEG400 was added thereto. The mixture was shaken and mixed thoroughly. At last, 10% of HP-β-CD was added. The mixture was shaken and mixed thoroughly. The ratio of each solvent was DMSO: PEG400:10% of HP-β-CD=5:67.5:27.5. The administration groups were administered by oral gavage at the dose of 150 mg/kg. The positive drug control group was administered at the dose of 5 mg/kg. The mice in each group were sacrificed by inhaling excess CO2 at 10 min, 30 min, 60 min, 120 min, 180 min, and 240 min after administration. The blood was collected into a 1.5 mL centrifuge tube, standing at room temperature for more than 30 min, and then centrifuged (3000 rpm, 10 min). The supernatant serum was aspirated, and stored at -80° C. for testing. After the blood was collected, the heart was cut with the thoracic aorta. Three parts of the heart were weighed and placed into cryovials, rapidly frozen in liquid nitrogen, and cryopreserved at -80° C. for testing. The aorta and aortic arch were weighed, rapidly frozen in liquid nitrogen, and cryopreserved at -80° C. for testing. The content of NO in the serum of C57BL/6 mice was determined by using the total NO test kit (Beyotime).

db/db mice = test: Serum NO and heart eNOS in db/db mice after oral gavage; type: in vivo; conditions: blank = 100, oral gavage 150 mg/kg (isosorbide mononitrate 5 mg/kg), 1 h after administration (H101: 2 h)
From the text: Experimental method: 25 eight-week-old db/db mice (strain: BKS.Cg−+Leprdb/+leprdb/JclSlac; grade: SPF; gender: male; source: Shanghai SLAC Laboratory Animal Co., Ltd.) were selected. 3 of them were selected as the blank administration control. 2 mice were used as the positive drug control (isosorbide mononitrate). The remaining 20 mice were randomly divided into 5 groups, 4 mice per group, which are H101 administration group, H111 administration group, H116 administration group, H119 administration group, and H130 administration group. The tested compounds of the positive drug control group and each administration group were dissolved in DMSO. Then PEG400 was added. The mixture was shaken and mixed thoroughly. At last, 10% of HP-β-CD was added. The mixture was shaken and mixed thoroughly. The ratio of each solvent was DMSO: PEG400:10% of HP-β-CD=5:67.5:27.5. The administration group was administered by oral gavage at the dose of 150 mg/kg. The positive drug control group was administered at the dose of 5 mg/kg. The mice in the H101 administration group were sacrificed at 2 h after the administration. The mice in the remaining administration groups were sacrificed at 1 h after the administration. The blood was collected respectively into 1.5 mL centrifuge tube, standing at room temperature for more than 30 min, and then centrifuged (3000 rpm, 10 min). The supernatant serum was aspirated, and stored at −80° C. for testing. After the blood was collected, the heart was cut with the thoracic aorta. Three parts of the heart were weighed and placed into cryovials, rapidly frozen in liquid nitrogen, and cryopreserved at −80° C. for testing. The aorta and aortic arch were weighed, rapidly frozen in liquid nitrogen, and cryopreserved at −80° C. for testing. The content of NO in the serum of the […] mice was determined by a total NO test kit (Beyotime). The content of NOS in the heart of the mice was determined with an NOS test kit (Beyotime). The content of eNOS was calculated by the difference between the measured values before and after adding the eNOS inhibitor L-NAME (Beyotime).

| SMILES | Content of Tested Substance (n = 2) ([2]; 0 min) | Content of Tested Substance (n = 2) ([2]; 10 min) | Content of Tested Substance (n = 2) ([2]; 30 min) | Content of Tested Substance (n = 2) ([2]; 60 min) | Content of Tested Substance (n = 2) ([2]; 120 min) | Upregulation of Apoa-I Mrna Level (ApoA-I mRNA) | Content of Tested Substance (n = 2) ([3]; 0 min) | Content of Tested Substance (n = 2) ([3]; 10 min) | Content of Tested Substance (n = 2) ([3]; 30 min) | Content of Tested Substance (n = 2) ([3]; 60 min) | Content of Tested Substance (n = 2) ([3]; 120 min) | stability in human plasma [3] | Amount of Released No [4] [µM] | also measured |
| --- | --- | --- | --- | --- | --- | --- | --- | --- | --- | --- | --- | --- | --- | --- |
| COc1cc(OC)c2c(=O)[nH]c(-c3cc(C)c(OCCOC(=O)ONS(=O)(=O)c4ccc(C)o4)c(C)c3)nc2c1 [Compound H104, N-((2-(4-(5,7-dimethoxy-4-oxo-3,4-dihydroquinazolin-2-yl)-2,6-dimethylphenoxy)ethoxy)carbonyloxy)-5-methylfuran-2-sulfonamide] | 100.0 | 0.5 | 0.0 | 0.0 | 0.3 | Active | 100.0 | 99.5 | 88.7 | 81.1 | 75.8 | good stability | – | Molar Quantities of N2O/Sample [1]: 23.6% |
| COc1cc(OC)c2c(=O)[nH]c(-c3cc(C)c(OCCOC(=O)CCC(=O)OCC(CO[N+](=O)[O-])(CO[N+](=O)[O-])CO[N+](=O)[O-])c(C)c3)nc2c1 [Compound H106, 2-[4-(5,7-dimethoxy-4-oxo-3,4-dihydro-quinazolin-2-yl)-2,6-dimethyl-phenoxy]-ethyl 3-(nitroxy)-2,2-di((nitroxy)methyl) propyl succinate] | – | – | – | – | – | Active | – | – | – | – | – | – | 2.56 | – |
| COc1cc(OC)c2c(=O)[nH]c(-c3cc(C)c(OCCOC(=O)CCC(CO[N+](=O)[O-])O[N+](=O)[O-])c(C)c3)nc2c1 (stereo not drawn) [Compound H108, 2-[4-(5,7-dimethoxy-4-oxo-3,4-dihydro-quinazolin-2-yl)-2,6-dimethyl-phenoxy]-ethyl 4,5-dinitroxy-pentanoate] | 100.0 | 0.5 | 0.3 | 1.7 | 0.3 | Active | 100.0 | 101.5 | 95.5 | 93.8 | 85.3 | good stability | 0.33 | – |
| COc1cc(OC)c2c(=O)[nH]c(-c3cc(C)c(OCCOC(=O)CNC(=O)CCCO[N+](=O)[O-])c(C)c3)nc2c1 [Compound H109, 2-[4-(5,7-dimethoxy-4-oxo-3,4-dihydro-quinazolin-2-yl)-2,6-dimethyl-phenoxy]-ethyl (4-nitroxy-butyrylamido)-acetate] | – | – | – | – | – | Active | – | – | – | – | – | – | 1.49 | – |
| COc1cc(OC)c2c(=O)[nH]c(-c3cc(C)c(OCCOC(=O)CC(N)C(=O)OCC(CO[N+](=O)[O-])O[N+](=O)[O-])c(C)c3)nc2c1.Cl (stereo not drawn) [Compound H118, 1-(2,3-dinitroxy-propyl) 4-{2-[4-(5,7-dimethoxy-4-oxo-3,4-dihydro-quinazolin-2-yl)-2,6-dimethyl-phenoxy]-ethyl}2-amino-succinate hydrochloride] | – | – | – | – | – | Active | – | – | – | – | – | – | 1.74 | release of prototype compound H130 after administration [5]: can be rapidly released; AUCRatio (Dosage Calibration) ([5]; iv, 1 mg/kg): 19.2%; AUCRatio (Dosage Calibration) ([5]; po, 5 mg/kg): 14.1% |
| O=[N+]([O-])O[C@@H]1CO[C@H]2[C@@H]1OC[C@@H]2O [Isosorbide Mononitrate, Isosorbide mononitrate, reference compound] | – | – | – | – | – | – | – | – | – | – | – | – | 3.31 | time after administration at which serum NO level rose to its maximum, then decreased (C57BL/6 mice): 2 h; Heart eNOS (db/db mice): 169%; Serum NO (db/db mice): 136% |
